# From US5849735A, “Tricyclic benzazepine vasopressin antagonists” (American Cyanamid Company, priority 1995, dated 1998)
# What was measured:
# [1] = target: T1, vasopressin V1 receptor (rat liver plasma membranes) (Rattus norvegicus, UniProt P30560); assay: Binding Assay to Rat Hepatic V1 Receptors
# T1 construct: Rat liver plasma membranes expressing the vasopressin V1 receptor subtypes; from tissue; host or cells: rat liver plasma membranes
# Method: Binding Assay to Rat Hepatic V1 Receptors
# Rat liver plasma membranes expressing the vasopressin V1 receptor subtypes are isolated by sucrose density gradient according to the method described by Lesko et al., (1973). These membranes are quickly suspended in 50.0 mM Tris.HCl buffer, pH 7.4, containing 0.2% bovine serum albumin (BSA) and 0.1 mM phenylmethylsulfonylfluoride (PMSF) and kept frozen at -70° C. until used in subsequent binding experiments. For binding experiments, the following is added to the wells of a ninety-six well format microtiter plate: […] of […] buffer containing 10.0 mM MgCl2, 0.2% heat inactivated BSA and a mixture of protease inhibitors: leupeptin, 1.0 mg %; aprotinin, 1.0 mg %; 1,10-phenanthroline,2.0 mg %; trypsin inhibitor, 10.0 mg % and 0.1 mM PMSF, 20.0 ml of [phenylalanyl-3,4,5, -^3 H] vasopressin (S.A. 45.1 Ci/mmole) […], and the reaction initiated by the addition of 80 ml of tissue membranes containing 20 mg of tissue protein. The plates are kept undisturbed on the bench top at room temperature for 120 min. to reach equilibrium. Non-specific samples are assayed in the presence of 0.1 mM of the unlabeled […] phenylalanylvasopressin, added in 20.0 ml volume.
# For test compounds, these are solubilized in 50% dimethylsulfoxide (DMSO) and added in 20.0 ml volume to a final incubation volume of […]. Upon completion of binding, the content of each well is filtered off, using a Brandel® cell Harvester (Gaithersburg, Md.). The radioactivity trapped on the filter disk by the ligand-receptor complex is assessed by liquid scintillation counting in a Packard LS Counter, with an efficiency of 65% for tritium.
# [2] = target: T2, oxytocin receptor (rat uteri) (Rattus norvegicus, UniProt P70536); assay: Oxytocin Receptor Binding; parameters: species or system rat (Sprague-Dawley); conditions: for IC50: [3H]oxytocin displacement
# T2 construct: The uteri are dissected out, cleaned of fat and connective tissues; from tissue; host or cells: uteri of diethylstilbestrol-treated female Sprague-Dawley rats
# T2 sequence (P70536 1-388): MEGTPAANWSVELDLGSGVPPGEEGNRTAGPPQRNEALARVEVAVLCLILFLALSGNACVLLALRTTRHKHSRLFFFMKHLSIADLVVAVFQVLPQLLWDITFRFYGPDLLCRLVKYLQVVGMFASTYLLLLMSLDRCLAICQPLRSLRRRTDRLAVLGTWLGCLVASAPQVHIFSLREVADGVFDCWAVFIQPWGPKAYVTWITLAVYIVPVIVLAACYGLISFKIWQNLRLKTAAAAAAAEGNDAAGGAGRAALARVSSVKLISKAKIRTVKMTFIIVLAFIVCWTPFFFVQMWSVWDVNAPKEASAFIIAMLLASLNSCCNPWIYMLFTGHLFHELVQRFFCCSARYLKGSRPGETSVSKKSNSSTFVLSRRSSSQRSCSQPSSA
# Method: Oxytocin Receptor Binding
# Female Sprague-Dawley rats weighing approximately 200-250 g are injected intramuscularly (i.m.) with 0.3 mg/kg of body weight of diethylstilbestrol (DES). The rats are sacrificed 18 hours later under pentobarbital anesthesia. The uteri are dissected out, cleaned of fat and connective tissues and rinsed in 50 ml of normal saline. The tissue pooled from six rats is homogenized in 50 ml of […] Tris. HCl, containing 0.5 mM dithiothreitol and 1.0 mM EDTA, adjusted to pH 7.4, using a polytron at setting 6 with three passes of 10 sec each. The homogenate is passed through two (2) layers of cheesecloth and the filtrate centrifuged at 1000×g for 10 minutes. The clear supernatant is removed and recentrifuged at 165,000×g for 30 minutes. The resulting pellet containing the oxytocin receptors is resuspended in 50.0 mM Tris.HCl containing 5.0 mM MgCl2 at pH 7.4, to give a protein concentration of 2.5 mg/ml of tissue suspension. This preparation is used in subsequent binding assays with [^3 H]oxytocin.
# Binding of 3,5-[^3 H]Oxytocin ([^3 H]OT) to its receptors is done in microtiter plates using [^3 H]OT, at various concentrations, in an assay buffer of 50.0 mM Tris.HCI, pH 7.4 and containing 5.0 mM MgCl2, and a mixture of protease inhibitors: BSA, 0.1 mg; aprotinin, 1.0 mg; 1,10-phenanthroline, 2.0 mg; […], 10.0 mg; and PMSF, 0.3 mg per 100 ml of buffer solution. Non-specific binding is determined in the presence of 1.0 uM unlabeled OT. The binding reaction is terminated after 60 minutes, at 22° C., by rapid filtration through glass fiber filters using a Brandel® cell harvester (Biomedical Research and Development Laboratories, Inc., Gaithersburg, Md.). Competition experiments are conducted at equilibrium using 1.0 nM [^3 H]OT and varying the concentration of the displacing agents. The concentrations of agent displacing 50% of [^3 H]OT at its sites (IC50) are calculated by a computer assisted LUNDON-2 program (LUNDON SOFTWARE INC., Ohio, USA).
# [3] = target: T3, vasopressin V2 receptor (rat kidney medullary) (Rattus norvegicus, UniProt Q00788); assay: Binding Assay to Rat Kidney Medullary V2 Receptors
# T3 construct: Medullary tissues from rat kidneys are dissected out; from tissue; host or cells: rat kidney medulla membranes
# Method: Binding Assay to Rat Kidney Medullary V2 Receptors
# Medullary tissues from rat kidneys are dissected out, cut into small pieces and soaked in a […] sodium chloride solution containing 1.0 mM EDTA with many changes of the liquid phase, until the solution is clear of blood. […] The tissue is homogenized in a 0.25M sucrose solution containing 1.0 mM EDTA and 0.1 mM PMSF using a Potter-Elvehjem homogenizer with a teflon pestle. The homogenate is filtered through several layers (4 layers) of cheese cloth. The filtrate is rehomogenized using a dounce homogenizer, with a tight fitting pestle. The final homogenate is centrifuged at 1500×g for 15 min. The nuclear pellet is discarded and the supernatant fluid recentrifuged at 40,000×g for 30 min. The resulting pellet formed contains a dark inner part with the exterior, slightly pink. The pink outer part is suspended in a small amount of 50.0 mM Tris.HCl buffer, pH 7.4. The protein content is determined by the Lowry's method (Lowry et al., J. Biol. Chem., 1953). The membrane suspension is stored at -70° C., in 50.0 mM Tris.HCl, containing 0.2% inactivated BSA and 0.1 mM PMSF in aliquots of 1.0 ml containing 10.0 mg protein per ml of suspension until sue in subsequent binding experiments.
# For binding experiments, the following is added in ml volume to wells of a 96 well format of a microtiter plate: 100.0 ml of 100.0 mM Tris.HCl buffer containing 0.2% heat inactivated BSA, 10.0 mM MgCL2 and a mixture of protease inhibitors: leupeptin, 1.0 mg %; aprotinin, 1.0 mg % 1,10-phenanthroline, 2.0 mg %; trypsin inhibitor, and 0.1 mM PMSF, 20.0 ml of [^3 H] Arginine^8, vasopressin (S.A. 75.0 Ci/mmole) at 0.8 nM and the reaction initiated by the addition of 80.0 ml of tissue membranes (200.0 mg tissue protein). The plates are left undisturbed on the bench top for 120 minutes to reach equilibrium. Non-specific binding is assessed in the presence of 1.0 mM of unlabeled ligand, added in 20 ml volume. For test compounds, these are solubilized in 50% dimethylsulfoxide (DMSO) and added in 20.0 ml volume to a final incubation volume of […]. Upon completion of binding, the content of each well is filtered off, using a Brandel® cell Harvester (Gaithersburg, Md.). The radioactivity trapped on the filter disk by the ligand-receptor complex is assessed by liquid scintillation counting in a Parkard LS Counter, with an efficiency of 65% for tritium.
# T3 sequence (Q00788 whole entry): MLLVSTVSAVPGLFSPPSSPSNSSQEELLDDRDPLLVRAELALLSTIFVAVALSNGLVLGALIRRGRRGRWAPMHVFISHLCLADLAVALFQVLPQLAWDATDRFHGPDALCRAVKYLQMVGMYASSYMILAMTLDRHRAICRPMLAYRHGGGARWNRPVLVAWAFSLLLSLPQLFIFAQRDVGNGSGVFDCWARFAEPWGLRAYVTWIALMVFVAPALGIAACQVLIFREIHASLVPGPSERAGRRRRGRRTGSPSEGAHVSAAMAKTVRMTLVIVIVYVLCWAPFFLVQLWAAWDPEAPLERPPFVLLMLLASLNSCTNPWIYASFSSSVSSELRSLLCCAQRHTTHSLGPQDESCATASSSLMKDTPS
# T1 sequence (P30560 whole entry): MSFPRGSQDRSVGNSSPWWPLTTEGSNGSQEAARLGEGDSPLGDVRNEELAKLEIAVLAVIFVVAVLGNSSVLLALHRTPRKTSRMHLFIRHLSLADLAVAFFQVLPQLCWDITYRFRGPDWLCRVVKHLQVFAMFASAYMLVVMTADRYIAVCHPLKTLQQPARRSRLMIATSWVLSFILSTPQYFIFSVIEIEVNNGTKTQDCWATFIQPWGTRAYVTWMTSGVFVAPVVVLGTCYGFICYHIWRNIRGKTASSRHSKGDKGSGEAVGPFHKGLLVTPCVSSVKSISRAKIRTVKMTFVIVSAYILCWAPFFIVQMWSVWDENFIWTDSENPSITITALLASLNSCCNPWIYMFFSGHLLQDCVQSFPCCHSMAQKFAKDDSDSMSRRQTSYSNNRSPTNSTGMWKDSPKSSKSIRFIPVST
SMILES,IC50 ([1]; rat hepatic V1 receptors) [nM],inhibition at 1 µM [2] [%],IC50 ([3]; rat kidney medullary V2 receptors) [nM],"inhibition at 1 µM ([1]; 2 h, rat hepatic V1) [%]",IC50 [2] [nM],inhibition at 10 µM [2] [%],"V2 % ([3]; rat kidney V2, ""at μM"" (concentration not given)) [%]","inhibition at 1 µM ([3]; rat kidney V2, at 1 μM) [%]","inhibition at 10 µM ([1]; 2 h, rat hepatic V1, at 10 μM) [%]","inhibition at 10 µM ([3]; rat kidney V2, at 10 μM) [%]"
"Cc1ccc(F)cc1C(=O)Nc1ccc(C(=O)N2Cc3ccccc3Oc3ccccc32)cn1 [Example 1, N-[5-(Dibenz[b,f][1,4]oxazepin-10(11H)-ylcarbonyl)-2-pyridinyl]-5-fluoro-2-methylbenzamide]",240,12,54,–,–,–,–,–,–,–
"O=C(Nc1ccc(C(=O)N2Cc3ccccc3Cc3ccccc32)cn1)c1ccccc1-c1ccccc1 [Example 12, N-[5-[(6,11-Dihydro-5H-dibenz[b,e]azepin-5-yl)carbonyl]-2-pyridinyl][1,1'-biphenyl]-2-carboxamide]",–,–,–,100,610,76,90,–,–,–
O=C(c1ccc(-c2ccccc2)cc1)N1Cc2ccccc2Nc2ccccc21 [Example 25],–,–,–,100,113,94,–,39,–,–
"O=C(c1ccccc1)c1ccc(C(=O)N2Cc3ccccc3CCc3ccccc32)cc1 [Example 33, 5-(4-Benzoylbenzoyl)5,6,11,12-tetrahydrodibenz[b,f]azocine]",–,37,–,–,–,–,–,–,10,16
